Earlier results in patent US12233147B2, “Method for treating keratin material” (Henkel AG & Co. KGaA, priority 2019, dated 2025).

Conditions: 25° C.

| SMILES | solubility in water |
| --- | --- |
| O=S(=O)([O-])c1ccc(N=Nc2c(O)ccc3ccccc23)cc1.[Na+] [Acid Orange 7, sodium salt of 4-[(2-hydroxy-1-naphthyl)azo]benzene sulphonate] | more than 7 g/L |
| O=C([O-])C1=NN(c2ccc(S(=O)(=O)[O-])cc2)C(=O)C1N=Nc1ccc(S(=O)(=O)[O-])cc1.[Na+].[Na+].[Na+] (stereo not shown) [Acid Yellow 23, trisodium salt of 4,5-dihydro-5-oxo-1-(4-sulfophenyl)-4-((4-sulfophenyl)azo)-1H-pyrazole-3-carboxylic acid] | highly soluble in water |
| Nc1cc(S(=O)(=O)[O-])cc2cc(S(=O)(=O)[O-])c(N=Nc3ccccc3)c(O)c12.[Na+].[Na+] [Acid Red 33, diantrium salt of 5-amino-4-hydroxy-3-(phenylazo)-naphthalene-2,7-disulphonate] | 2.5 mg/mL |
| O=C([O-])c1c(Cl)c(Cl)c(Cl)c(Cl)c1-c1c2c(Br)cc(=O)c(Br)c-2oc2c(Br)c(O)cc(Br)c12.O=C([O-])c1c(Cl)c(Cl)c(Cl)c(Cl)c1-c1c2c(Br)cc(=O)c(Br)c-2oc2c(Br)c(O)cc(Br)c12.[Na+].[Na+] [Acid Red 92, disodium salt of 3,4,5,6-tetrachloro-2-(1,4,5,8-tetrabromo-6-hydroxy-3-oxoxanthen-9-yl)benzoic acid] | greater than 10 g/L |
